Experimental data: ChEMBL document CHEMBL4270672, “Synthesis and Biological Evaluation of Fused Tricyclic Heterocycle Piperazine (Piperidine) Derivatives As Potential Multireceptor Atypical Antipsychotics” (J Med Chem, 2018)
Active and inactive are the calls of the source. No cut-off for these calls is given here.

Key:
[1] = organism: Mus musculus; test: animal or person; details: Kunming, po
Description: Antipsychotic activity in po dosed Kunming mouse assessed as reduction in MK-801-induced hyperactivity pretreated for 60 mins followed by MK-801 challenge measured for 90 mins

[2] = organism: Mus musculus; test: animal or person; details: Kunming, po; remark: listed apart in the source
Description: Antipsychotic activity in po dosed Kunming mouse assessed as reduction in apomorphine-induced climbing pretreated for 30 mins followed by apomorphine injection measured at 10 to 30 mins post dose

[3] = tested on: Mus musculus; test: Induction of catalepsy in po dosed Kunming mouse measured after 60 secs; assay type: organism-based; details: in vivo, 1 min
[4] = Therapeutic index, ratio of ED50 for catalepsy in Kunming mouse to ED50 for MK-801-induced hyperactivity in Kunming mouse; assay type: toxicity, organism-based; details: in vivo, read-out: Ratio ED50
[5] = Therapeutic index, ratio of ED50 for catalepsy in Kunming mouse to ED50 for apomorphine-induced climbing in Kunming mouse; assay type: toxicity, organism-based; details: in vivo, read-out: Ratio ED50
[6] = molecular target: T1, 5-hydroxytryptamine receptor 2C (Rattus norvegicus, UniProt P08909)
T1 sequence (P08909 whole entry): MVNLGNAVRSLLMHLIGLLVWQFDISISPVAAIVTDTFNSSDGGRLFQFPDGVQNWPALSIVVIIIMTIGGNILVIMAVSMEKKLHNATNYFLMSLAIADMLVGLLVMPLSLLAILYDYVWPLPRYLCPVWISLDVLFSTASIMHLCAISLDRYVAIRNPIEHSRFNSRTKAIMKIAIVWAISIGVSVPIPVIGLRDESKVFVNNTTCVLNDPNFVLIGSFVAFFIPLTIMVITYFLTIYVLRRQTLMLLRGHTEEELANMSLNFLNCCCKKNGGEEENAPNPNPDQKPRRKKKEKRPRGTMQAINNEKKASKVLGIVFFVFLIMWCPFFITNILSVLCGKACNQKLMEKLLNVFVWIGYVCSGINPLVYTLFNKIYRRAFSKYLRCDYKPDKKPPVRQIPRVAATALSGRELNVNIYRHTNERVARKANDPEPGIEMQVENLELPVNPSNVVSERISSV

[7] = molecular target: T2, Adrenergic receptor alpha-1 (Rattus norvegicus, UniProt P15823+P23944+P43140)
T2 sequence (P15823 whole entry): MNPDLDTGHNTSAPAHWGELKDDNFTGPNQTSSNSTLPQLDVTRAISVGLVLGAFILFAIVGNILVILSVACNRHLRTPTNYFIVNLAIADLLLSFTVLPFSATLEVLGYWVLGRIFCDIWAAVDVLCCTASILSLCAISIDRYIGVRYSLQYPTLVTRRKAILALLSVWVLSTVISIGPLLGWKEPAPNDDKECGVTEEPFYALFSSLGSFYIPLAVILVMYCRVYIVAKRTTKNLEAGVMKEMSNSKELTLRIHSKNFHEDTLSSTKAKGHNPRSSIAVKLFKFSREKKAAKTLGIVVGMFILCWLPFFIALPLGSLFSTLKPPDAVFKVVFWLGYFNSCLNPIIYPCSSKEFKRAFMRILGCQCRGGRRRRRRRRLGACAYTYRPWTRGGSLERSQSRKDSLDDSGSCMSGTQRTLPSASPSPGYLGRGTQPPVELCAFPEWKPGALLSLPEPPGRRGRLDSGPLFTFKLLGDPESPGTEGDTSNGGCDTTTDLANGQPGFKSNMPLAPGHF
T2 sequence (P23944 whole entry): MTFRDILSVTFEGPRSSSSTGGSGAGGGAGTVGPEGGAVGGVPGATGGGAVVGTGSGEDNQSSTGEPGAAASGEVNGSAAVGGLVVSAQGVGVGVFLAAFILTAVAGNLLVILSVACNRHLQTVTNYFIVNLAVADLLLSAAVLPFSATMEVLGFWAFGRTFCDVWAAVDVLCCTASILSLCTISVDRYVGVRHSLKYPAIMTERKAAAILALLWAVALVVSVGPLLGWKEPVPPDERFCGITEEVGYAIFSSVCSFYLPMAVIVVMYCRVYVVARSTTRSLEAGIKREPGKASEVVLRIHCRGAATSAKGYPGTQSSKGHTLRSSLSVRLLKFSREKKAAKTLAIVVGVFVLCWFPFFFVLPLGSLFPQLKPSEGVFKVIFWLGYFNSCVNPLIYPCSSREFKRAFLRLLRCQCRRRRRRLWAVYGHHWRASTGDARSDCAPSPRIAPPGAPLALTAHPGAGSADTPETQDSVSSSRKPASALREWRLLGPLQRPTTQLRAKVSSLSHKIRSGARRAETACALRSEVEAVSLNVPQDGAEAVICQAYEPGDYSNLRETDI
T2 sequence (P43140 whole entry): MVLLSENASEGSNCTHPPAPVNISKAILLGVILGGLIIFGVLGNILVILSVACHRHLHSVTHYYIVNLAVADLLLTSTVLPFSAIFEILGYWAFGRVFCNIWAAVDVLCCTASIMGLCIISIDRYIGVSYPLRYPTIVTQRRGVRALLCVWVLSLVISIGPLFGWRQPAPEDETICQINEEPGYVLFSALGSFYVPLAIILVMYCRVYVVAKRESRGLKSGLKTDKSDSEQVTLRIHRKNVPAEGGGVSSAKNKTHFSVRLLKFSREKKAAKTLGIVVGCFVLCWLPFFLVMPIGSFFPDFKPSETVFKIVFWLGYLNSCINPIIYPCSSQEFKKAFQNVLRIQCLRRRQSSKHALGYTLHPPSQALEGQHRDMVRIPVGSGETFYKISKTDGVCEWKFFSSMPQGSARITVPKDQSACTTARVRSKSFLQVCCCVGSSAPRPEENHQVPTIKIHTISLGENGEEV
Description: Displacement of [3H]-prazosin from alpha-1 adrenergic receptor in rat cerebral cortex homogenates incubated for 60 mins by liquid scintillation counting

[8] = molecular target: D(2) dopamine receptor (Rattus norvegicus, UniProt P61169)
[9] = molecular target: D(3) dopamine receptor (Rattus norvegicus, UniProt P19020)
[10] = molecular target: 5-hydroxytryptamine receptor 2A (Rattus norvegicus, UniProt P14842); test: Displacement of [3H]-ketanserine from serotonin 5-HT2A receptor in rat brain cortex homogenates incubated for 30 mins by liquid scintillation counting
[11] = molecular target: T3, 5-hydroxytryptamine receptor 1A (Rattus norvegicus, UniProt P19327)
T3 sequence (P19327 whole entry): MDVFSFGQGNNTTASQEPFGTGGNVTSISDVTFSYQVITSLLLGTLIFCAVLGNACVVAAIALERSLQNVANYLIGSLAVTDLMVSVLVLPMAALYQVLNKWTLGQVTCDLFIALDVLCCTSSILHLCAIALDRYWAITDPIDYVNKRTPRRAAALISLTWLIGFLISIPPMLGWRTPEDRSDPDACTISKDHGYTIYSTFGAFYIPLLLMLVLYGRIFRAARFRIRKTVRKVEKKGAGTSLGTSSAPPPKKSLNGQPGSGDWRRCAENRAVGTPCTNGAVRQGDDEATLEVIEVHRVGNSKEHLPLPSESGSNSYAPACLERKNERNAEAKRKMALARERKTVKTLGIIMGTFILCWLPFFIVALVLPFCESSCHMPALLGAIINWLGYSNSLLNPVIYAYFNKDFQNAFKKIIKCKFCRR

[12] = molecular target: Histamine H1 receptor (Cavia porcellus, UniProt P31389)
Description: Displacement of [3H]-mepyramine from histamine H1 receptor in guinea pig cerebellum homogenates incubated for 60 mins by liquid scintillation counting

[13] = molecular target: T4, 5-hydroxytryptamine receptor 6 (Homo sapiens, UniProt P50406); test: biochemical
[14] = tested on: Mus musculus; test: Induction of weight gain in Kunming mouse at 0.03 to 0.27 mg/kg, po administered for 28 days measured every day during compound dosing; assay type: organism-based; details: in vivo, 672 h
[15] = tested on: Rattus norvegicus; test: Cognitive enhancing effect in Sprague-Dawley rat assessed as effect on total exploration time for familiar objects in acquisition trial at 0.2 mg/kg, po administered 1 hr measured for 3 mins by novel object recognition test; assay type: functional, organism-based
[16] = tested on: Rattus norvegicus; test: Antipsychotic activity in po dosed Sprague-Dawley rat assessed as reduction in conditioned avoidance response measured at 90 mins post single dose; assay type: functional; details: 1.5 h
[17] = molecular target: Voltage-gated inwardly rectifying potassium channel KCNH2 (Homo sapiens, UniProt Q12809)
Description: Inhibition of human ERG expressed in HEK293 cells at -50 mV holding potential by patch clamp assay

[18] = molecular target: 5-hydroxytryptamine receptor 2A (Homo sapiens, UniProt P28223); test: Agonist activity at serotonin 5-HT2A receptor (unknown origin) expressed in HEK293 cells assessed as induction of calcium flux at 10 uM after 60 mins by calcium 4-dye based FLIPR assay relative to control; assay type: functional, cell-based
[19] = molecular target: T4, 5-hydroxytryptamine receptor 6; test: Agonist activity at serotonin 5-HT6 receptor (unknown origin) expressed in HEK293 cells assessed as induction of calcium flux at 10 uM after 60 mins by calcium 4-dye based FLIPR assay relative to control; assay type: functional, cell-based
[20] = molecular target: D(2) dopamine receptor (Homo sapiens, UniProt P14416); test: Antagonist activity at dopamine D2 receptor long isoform (unknown origin) expressed in HEK293 cells assessed as inhibition of dopamine-induced calcium flux at 10 uM after 15 mins by calcium 4-dye based FLIPR assay relative to control; assay type: functional, cell-based
[21] = tested on: Rattus norvegicus; test: Cognitive enhancing effect in Sprague-Dawley rat assessed as effect on total exploration time for familiar objects in acquisition trial at 0.3 mg/kg, po administered 1 hr measured for 3 mins by novel object recognition test; assay type: functional, organism-based

Histamine H1 receptor, sequence (P31389 whole entry): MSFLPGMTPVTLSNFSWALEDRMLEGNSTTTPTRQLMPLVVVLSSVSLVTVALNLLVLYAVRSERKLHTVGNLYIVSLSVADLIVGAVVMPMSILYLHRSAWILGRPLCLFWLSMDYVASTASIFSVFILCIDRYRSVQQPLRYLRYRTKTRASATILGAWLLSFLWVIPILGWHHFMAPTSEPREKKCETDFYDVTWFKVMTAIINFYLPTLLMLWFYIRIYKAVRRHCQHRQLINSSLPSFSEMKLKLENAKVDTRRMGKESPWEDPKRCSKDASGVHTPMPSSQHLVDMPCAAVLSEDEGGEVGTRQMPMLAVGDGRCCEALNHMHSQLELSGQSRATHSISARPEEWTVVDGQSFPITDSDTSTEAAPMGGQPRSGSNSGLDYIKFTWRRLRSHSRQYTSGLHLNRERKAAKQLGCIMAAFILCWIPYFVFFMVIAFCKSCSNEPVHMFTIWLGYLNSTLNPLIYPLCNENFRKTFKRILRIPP
5-hydroxytryptamine receptor 2A (Rattus norvegicus, UniProt P14842), sequence (P14842 whole entry): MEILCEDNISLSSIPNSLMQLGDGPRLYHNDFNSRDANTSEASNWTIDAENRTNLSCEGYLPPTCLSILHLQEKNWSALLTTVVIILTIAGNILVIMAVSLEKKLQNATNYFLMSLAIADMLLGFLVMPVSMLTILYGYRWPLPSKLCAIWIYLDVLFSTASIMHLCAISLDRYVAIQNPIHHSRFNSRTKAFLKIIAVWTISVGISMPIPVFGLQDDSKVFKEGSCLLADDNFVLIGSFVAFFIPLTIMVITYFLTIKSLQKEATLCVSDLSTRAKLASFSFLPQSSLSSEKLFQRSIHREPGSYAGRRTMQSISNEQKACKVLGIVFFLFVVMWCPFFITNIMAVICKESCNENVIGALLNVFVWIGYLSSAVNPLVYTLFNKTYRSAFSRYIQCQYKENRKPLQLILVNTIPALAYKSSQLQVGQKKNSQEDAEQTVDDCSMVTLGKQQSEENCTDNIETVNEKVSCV
T4 sequence (P50406 whole entry): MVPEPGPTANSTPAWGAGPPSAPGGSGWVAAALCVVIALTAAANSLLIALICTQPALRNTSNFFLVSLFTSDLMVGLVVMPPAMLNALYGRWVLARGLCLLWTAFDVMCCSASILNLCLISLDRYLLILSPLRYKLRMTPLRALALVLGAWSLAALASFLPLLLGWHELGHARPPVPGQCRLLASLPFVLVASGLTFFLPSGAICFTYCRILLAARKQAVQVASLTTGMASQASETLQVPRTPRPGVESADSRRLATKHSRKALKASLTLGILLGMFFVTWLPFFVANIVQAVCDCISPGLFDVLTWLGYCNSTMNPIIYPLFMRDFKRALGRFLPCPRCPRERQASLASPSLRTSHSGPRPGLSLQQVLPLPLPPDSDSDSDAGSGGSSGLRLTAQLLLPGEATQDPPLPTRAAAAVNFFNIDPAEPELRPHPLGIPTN
D(2) dopamine receptor (Rattus norvegicus, UniProt P61169), sequence (P61169 whole entry): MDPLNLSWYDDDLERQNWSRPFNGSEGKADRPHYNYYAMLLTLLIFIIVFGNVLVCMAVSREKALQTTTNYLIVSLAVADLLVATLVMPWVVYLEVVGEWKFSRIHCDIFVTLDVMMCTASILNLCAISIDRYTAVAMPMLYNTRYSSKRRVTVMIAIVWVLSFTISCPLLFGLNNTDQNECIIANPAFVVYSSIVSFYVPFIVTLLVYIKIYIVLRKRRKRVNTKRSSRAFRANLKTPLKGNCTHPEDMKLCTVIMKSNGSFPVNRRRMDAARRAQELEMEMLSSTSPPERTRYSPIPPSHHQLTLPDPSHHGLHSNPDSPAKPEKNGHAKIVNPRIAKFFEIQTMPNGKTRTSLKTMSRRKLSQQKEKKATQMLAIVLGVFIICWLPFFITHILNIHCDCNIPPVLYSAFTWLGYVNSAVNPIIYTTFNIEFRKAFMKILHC
D(3) dopamine receptor, sequence (P19020 whole entry): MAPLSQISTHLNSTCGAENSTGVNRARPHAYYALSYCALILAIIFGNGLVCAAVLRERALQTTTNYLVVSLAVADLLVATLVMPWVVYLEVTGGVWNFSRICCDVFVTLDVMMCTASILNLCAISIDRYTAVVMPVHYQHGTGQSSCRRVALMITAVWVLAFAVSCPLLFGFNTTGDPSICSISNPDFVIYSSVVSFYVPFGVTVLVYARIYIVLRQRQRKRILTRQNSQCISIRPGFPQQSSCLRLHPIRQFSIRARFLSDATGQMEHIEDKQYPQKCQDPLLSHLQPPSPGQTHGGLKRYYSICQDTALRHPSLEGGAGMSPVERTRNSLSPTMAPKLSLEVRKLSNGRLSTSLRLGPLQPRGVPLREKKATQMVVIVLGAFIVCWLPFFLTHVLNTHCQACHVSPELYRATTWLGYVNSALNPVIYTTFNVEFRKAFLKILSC
D(2) dopamine receptor (Homo sapiens, UniProt P14416), sequence (P14416 whole entry, canonical isoform): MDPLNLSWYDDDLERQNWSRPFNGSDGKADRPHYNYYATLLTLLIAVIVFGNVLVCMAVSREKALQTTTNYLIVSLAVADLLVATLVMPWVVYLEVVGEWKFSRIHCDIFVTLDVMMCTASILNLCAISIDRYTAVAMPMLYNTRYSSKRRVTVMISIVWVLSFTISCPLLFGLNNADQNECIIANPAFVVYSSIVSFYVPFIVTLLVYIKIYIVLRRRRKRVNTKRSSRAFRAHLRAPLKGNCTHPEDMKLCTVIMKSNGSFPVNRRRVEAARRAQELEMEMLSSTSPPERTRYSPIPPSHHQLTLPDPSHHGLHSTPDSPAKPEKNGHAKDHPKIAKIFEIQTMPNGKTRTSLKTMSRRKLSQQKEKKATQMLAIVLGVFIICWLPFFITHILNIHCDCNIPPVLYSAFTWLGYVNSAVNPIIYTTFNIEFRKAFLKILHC
Voltage-gated inwardly rectifying potassium channel KCNH2, sequence (Q12809 whole entry): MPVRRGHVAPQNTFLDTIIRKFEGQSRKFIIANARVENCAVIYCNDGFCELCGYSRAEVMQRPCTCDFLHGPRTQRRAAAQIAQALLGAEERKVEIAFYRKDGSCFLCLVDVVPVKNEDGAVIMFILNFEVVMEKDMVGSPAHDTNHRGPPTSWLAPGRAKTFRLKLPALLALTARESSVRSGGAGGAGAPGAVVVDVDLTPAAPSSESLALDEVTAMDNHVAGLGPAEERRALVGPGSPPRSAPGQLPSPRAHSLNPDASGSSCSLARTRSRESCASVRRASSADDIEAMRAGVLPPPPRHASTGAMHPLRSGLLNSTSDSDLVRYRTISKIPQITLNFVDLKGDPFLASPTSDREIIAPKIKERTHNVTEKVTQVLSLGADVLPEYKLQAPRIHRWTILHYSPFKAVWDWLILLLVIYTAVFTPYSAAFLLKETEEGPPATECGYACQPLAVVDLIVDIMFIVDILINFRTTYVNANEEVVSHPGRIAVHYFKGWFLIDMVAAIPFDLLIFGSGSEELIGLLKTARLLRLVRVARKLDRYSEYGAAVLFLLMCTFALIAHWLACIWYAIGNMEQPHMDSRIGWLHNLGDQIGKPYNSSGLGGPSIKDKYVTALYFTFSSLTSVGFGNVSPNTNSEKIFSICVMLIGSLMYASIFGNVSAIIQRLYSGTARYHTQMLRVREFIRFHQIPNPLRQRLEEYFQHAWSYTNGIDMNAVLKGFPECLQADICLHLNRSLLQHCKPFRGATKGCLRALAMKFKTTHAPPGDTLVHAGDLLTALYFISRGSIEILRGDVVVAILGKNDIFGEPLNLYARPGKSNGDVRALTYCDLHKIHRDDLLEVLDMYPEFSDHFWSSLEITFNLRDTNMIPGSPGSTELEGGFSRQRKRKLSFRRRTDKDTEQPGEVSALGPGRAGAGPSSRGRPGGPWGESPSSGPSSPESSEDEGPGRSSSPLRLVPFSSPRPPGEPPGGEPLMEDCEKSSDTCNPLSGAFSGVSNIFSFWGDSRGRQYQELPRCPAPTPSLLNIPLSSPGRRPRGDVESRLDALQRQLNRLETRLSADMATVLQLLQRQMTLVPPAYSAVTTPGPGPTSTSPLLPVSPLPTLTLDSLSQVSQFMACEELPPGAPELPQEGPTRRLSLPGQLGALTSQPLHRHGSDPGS
5-hydroxytryptamine receptor 2A (Homo sapiens, UniProt P28223), sequence (P28223 whole entry): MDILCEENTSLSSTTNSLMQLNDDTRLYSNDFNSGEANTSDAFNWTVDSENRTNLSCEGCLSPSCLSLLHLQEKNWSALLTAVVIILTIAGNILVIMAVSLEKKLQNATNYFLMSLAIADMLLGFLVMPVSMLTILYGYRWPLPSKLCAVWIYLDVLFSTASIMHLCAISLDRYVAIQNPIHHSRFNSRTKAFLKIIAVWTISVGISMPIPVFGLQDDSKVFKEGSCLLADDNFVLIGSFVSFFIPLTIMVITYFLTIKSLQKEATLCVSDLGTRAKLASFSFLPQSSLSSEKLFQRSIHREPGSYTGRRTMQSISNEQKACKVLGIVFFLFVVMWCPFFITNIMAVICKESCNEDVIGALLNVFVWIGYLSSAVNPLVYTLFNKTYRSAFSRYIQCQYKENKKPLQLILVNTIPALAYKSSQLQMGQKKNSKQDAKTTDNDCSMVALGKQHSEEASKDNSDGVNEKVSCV

Row | SMILES | Ki [6] [nM] | Ki [7] [nM] | Ki [8] [nM] | Ki [9] [nM] | Ki [10] [nM] | Ki [11] [nM] | Ki [12] [nM] | Ki [13] [nM] | other results
1 | O=C(CCCN1CCC(O)(c2ccc(Cl)cc2)CC1)c1ccc(F)cc1 [HALOPERIDOL] | – | – | – | – | – | – | – | – | ED50 [1]: 0.16 mg/kg; ED50 [2]: 0.11 mg/kg; ED50 [3]: 0.12 mg/kg; selectivity ratio [4]: 0.75; selectivity ratio [5]: 1.09
2 | O=C(CCCN1CCC(c2noc3cc(F)ccc23)CC1)c1cc2c3c(c1)CCN3C(=O)CC2 | 610 | 491.3 | 10.3 | 61.3 | 9.9 | 12 | 421 | 241 | –
3 | O=C1CCc2cc(C(O)CCCCN3CCC(c4noc5cc(F)ccc45)CC3)cc3c2N1CC3 (configuration not stated) | 33.7 | 596 | 8.4 | 116 | 0.4 | 12 | 43.5 | 29.5 | –
4 | Cc1nc2n(c(=O)c1CCN1CCC(c3noc4cc(F)ccc34)CC1)CCCC2 [RISPERIDONE] | – | – | – | – | – | – | – | – | ED50 [1]: 0.011 mg/kg; ED50 [2]: 0.28 mg/kg; ED50 [3]: 0.51 mg/kg; Activity [14]: Toxic; Activity [15]: inactive; ED50 [16]: 0.52 mg/kg
5 | O=C1CCc2cc(CCCCN3CCC(c4noc5cc(F)ccc45)CC3)cc3c2N1CC3 | 540 | 99.3 | 9.9 | 54.9 | 19.3 | 11.7 | 712 | 17.7 | –
6 | O=C1CCc2cc(C(O)CCCN3CCC(c4noc5cc(F)ccc45)CC3)cc3c2N1CC3 (configuration not stated) | 742 | 339 | – | 45.4 | 69.5 | 22.5 | 339 | 6.36 | IC50 [17]: 1900 nM
7 | NCCc1c[nH]c2ccc(O)cc12 | – | – | – | – | – | – | – | – | Activity [18]: 94.5%; Activity [19]: 98%
8 | CN1CCc2cc(Cl)c(O)cc2[C@@H](c2ccccc2)C1 | – | – | – | – | – | – | – | – | inhibition [20]: 99%
9 | CCN(C)C(=O)Oc1cccc([C@H](C)N(C)C)c1 | – | – | – | – | – | – | – | – | Activity [21]: Active
